Here are results for one molecule from patent publication US20220332839A1, “USE OF PRG4 TO TREAT CANCER” (Lubris LLC, priority 2019, published 2022).

One test concerns CD44-shRNA HCC cells. As to the kind of experiment: 72-hour proliferation assay, CD44-silenced HCC cells. The test is classed as cell-based, human. The settings on record: 2.5 μM drug; rhPRG4 0 to 100 μg/ml; p<0.05 to p<0.001. The text has this:
Stable CD44 silencing: HLE and HLF cell lines were transduced with lentiviral particles carrying control non-targeting (V), or specific CD44-targeting shRNA sequences (A to D), and selected with puromycin dihydrochloride (Thermo Fisher Scientific) to obtain stable CD44 silencing, according to manufacturer instructions (OriGene Technologies, Inc., Rockville, Md. 20850, USA). Control-shRNA sequence (V) and CD44-shRNA sequence B were used in all the experiments involving CD44 downregulation.
Proliferation assay: In 100 μl complete medium, 3,000 cells were seeded in wells of a 96-well plate and left overnight to allow complete attachment. The next day (at time t=0 hours), the medium was removed and replaced with 100 μl of fresh medium in the presence/absence of Sorafenib (2.5 μM), Regorafenib (2.5 μM), rhPRG4 (12.5 to 100 μg/ml). Dimethyl sulfoxide (DMSO) and PBS+0.01% Tween-20 were used as vehicles of Sorafenib/Regorafenib, and rhPRG4, respectively. Cells in triplicate wells for each cell line were fixed at t=0 hours with 4% paraformaldehyde (PFA, pH 7.6, 10 min incubation), then stained with crystal violet (CV) and thoroughly washed to remove the excess staining. […] Optical density was at 595 nm wavelength measured using a plate reader.

The subject of test [1] is HCC cells (HLE, HLF, PLC/DC/19, Hep3B, PLC/PRF/5). As to the kind of experiment: 72-hour proliferation assay, all HCC cells. Format: cell-based, human. To be noted: Homo sapiens, same experimental conditions. As to the method:
Proliferation assay: In 100 μl complete medium, 3,000 cells were seeded in wells of a 96-well plate and left overnight to allow complete attachment. The next day (at time t=0 hours), the medium was removed and replaced with 100 μl of fresh medium in the presence/absence of Sorafenib (2.5 μM), Regorafenib (2.5 μM), rhPRG4 (12.5 to 100 μg/ml). Dimethyl sulfoxide (DMSO) and PBS+0.01% Tween-20 were used as vehicles of Sorafenib/Regorafenib, and rhPRG4, respectively. Cells in triplicate wells for each cell line were fixed at t=0 hours with 4% paraformaldehyde (PFA, pH 7.6, 10 min incubation), then stained with crystal violet (CV) and thoroughly washed to remove the excess staining. After 72 hours, the cells were fixed by adding 100 μl of 4% PFA directly to the medium (2% final PFA concentration, 20 min incubation), and processed for CV staining as previously described. Then, 100 or 200 μl of 1% sodium dodecyl-sulphate were added to the wells and the plates were left under shaking until complete CV release from stained cells. Optical density was at 595 nm wavelength measured using a plate reader.

The term IC50 denotes the concentration that gives 50% inhibition. Turning to `CNC(=O)c1cc(Oc2ccc(NC(=O)Nc3ccc(Cl)c(C(F)(F)F)c3)cc2)ccn1` [Sorafenib], the “capacity in inhibiting cells proliferation in CD44 silenced cells compared to control cells” value in the test on CD44-shRNA HCC cells is “significantly reduced”. Further, in test [1], the IC50 is ~5 µM.
